# In ChEMBL document CHEMBL5523727, “Discovery of KT-413, a Targeted Protein Degrader of IRAK4 and IMiD Substrates Targeting MYD88 Mutant Diffuse Large B-Cell Lymphoma” (J Med Chem, 2024):
# Key:
# [1] = Half life in Non human primate plasma; type: ADME, cell-free; conditions: primates
# [2] = target: T1, Protein cereblon/Interleukin-1 receptor-associated kinase 4 (Homo sapiens, UniProt Q9NWZ3+Q96SW2); assay: PROTAC activity at CRBN/IRAK4 in human OCI-Ly10 cells assessed as induction of IRAK4 degradation measured after 24 hrs by MSD assay; type: cell-based
# Target sequence in this assay (Q9NWZ3 whole entry): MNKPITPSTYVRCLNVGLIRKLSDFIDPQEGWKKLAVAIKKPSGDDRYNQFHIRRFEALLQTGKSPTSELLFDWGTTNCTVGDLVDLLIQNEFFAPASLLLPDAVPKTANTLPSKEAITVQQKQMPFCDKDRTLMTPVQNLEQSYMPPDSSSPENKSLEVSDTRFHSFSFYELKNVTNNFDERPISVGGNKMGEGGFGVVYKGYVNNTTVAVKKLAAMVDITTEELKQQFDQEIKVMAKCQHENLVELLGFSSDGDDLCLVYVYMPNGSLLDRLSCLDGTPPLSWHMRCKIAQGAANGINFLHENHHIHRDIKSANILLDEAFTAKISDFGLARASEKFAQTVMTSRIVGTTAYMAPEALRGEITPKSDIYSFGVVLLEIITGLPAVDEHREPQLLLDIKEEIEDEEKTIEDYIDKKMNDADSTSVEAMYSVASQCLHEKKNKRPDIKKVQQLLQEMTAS
# Target sequence in this assay (Q96SW2 whole entry): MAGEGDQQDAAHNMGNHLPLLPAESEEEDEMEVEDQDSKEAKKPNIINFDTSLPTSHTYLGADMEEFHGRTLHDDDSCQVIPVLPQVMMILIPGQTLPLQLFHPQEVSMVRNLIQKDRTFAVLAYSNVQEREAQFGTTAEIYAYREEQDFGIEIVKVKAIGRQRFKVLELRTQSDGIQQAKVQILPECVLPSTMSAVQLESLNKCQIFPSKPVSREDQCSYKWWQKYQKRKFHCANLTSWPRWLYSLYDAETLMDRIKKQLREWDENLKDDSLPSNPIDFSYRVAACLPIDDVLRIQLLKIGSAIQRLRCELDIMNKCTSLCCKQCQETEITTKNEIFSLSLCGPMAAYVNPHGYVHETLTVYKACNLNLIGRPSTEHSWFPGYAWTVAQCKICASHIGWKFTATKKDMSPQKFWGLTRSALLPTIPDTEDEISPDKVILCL
# [3] = target: Protein cereblon (Homo sapiens, UniProt Q96SW2); assay: Binding affinity to CRBN (unknown origin) by HTRF assay
# [4] = Half life in rat plasma; type: ADME, cell-free
# [5] = Drug exposure in rat administered as iv bolus dose; type: ADME, organism-based; conditions: in vivo
# [6] = Drug exposure in Non human primate administered as iv dose; type: ADME, organism-based; conditions: primates, in vivo
# [7] = target: Cereblon/Ikaros (Homo sapiens, UniProt Q96SW2+Q13422); assay: PROTAC activity at CRBN/Ikaros in human OCI-Ly10 cells assessed as induction of Ikaros degradation measured after 24 hrs by MSD assay; type: cell-based
# [8] = Half life in dog plasma; type: ADME, cell-free, Canis lupus familiaris
# [9] = Half life in human plasma; type: ADME, cell-free
# [10] = target: T1, Protein cereblon/Interleukin-1 receptor-associated kinase 4; assay: PROTAC activity at CRBN/IRAK4 in human OCI-Ly10 cells assessed as induction of IRAK4 degradation measured after 24 hrs by MSD assay relative to control; type: cell-based
# Target sequence in this assay (Q96SW2 whole entry, looked up): as the sequence (Q96SW2 whole entry) above
# Target sequence in this assay (Q9NWZ3 whole entry, looked up): as the sequence (Q9NWZ3 whole entry) above
# [11] = Metabolic stability in human liver microsomes assessed as intrinsic clearance at 1 uM measured upto 60 mins in presence of NADPH by UPLC/MS-MS analysis; type: ADME, Microsome; conditions: read-out: CLH
# [12] = Metabolic stability in rat liver microsomes assessed as intrinsic clearance at 1 uM measured upto 60 mins in presence of NADPH by UPLC/MS-MS analysis; type: ADME, Microsome; conditions: read-out: CLH
# [13] = system: OCI-Ly10; assay: Antiproliferative activity against human OCI-Ly10 cells measured after 4 days by CellTiter-Glo Luminescent Cell Viability Assay; type: functional, cell-based; conditions: Homo sapiens, OCI-Ly10, 96 h
# [14] = Passive permeability of the compound in wild type MDCK cells across apical to basolateral side at 1 uM measured for 120 mins by LC-MS/MS analysis; type: ADME, cell-based, Canis lupus familiaris; conditions: dog, read-out: permeability
# [15] = target: Protein cereblon/Interleukin-1 receptor-associated kinase 4 (Homo sapiens, UniProt Q96SW2+Q9NWZ3); assay: Binding affinity to CRBN/IRAK4 […] assessed as dissociation constant by DiscoverX Kd Elect assay
# Protein cereblon/Interleukin-1 receptor-associated kinase 4 (Homo sapiens, UniProt Q96SW2+Q9NWZ3), sequence (Q9NWZ3 whole entry): as above
# Protein cereblon/Interleukin-1 receptor-associated kinase 4 (Homo sapiens, UniProt Q96SW2+Q9NWZ3), sequence (Q96SW2 whole entry): as the sequence (Q96SW2 whole entry) above
# Cereblon/Ikaros, sequence (Q96SW2 whole entry): as above
# Cereblon/Ikaros, sequence (Q13422 whole entry): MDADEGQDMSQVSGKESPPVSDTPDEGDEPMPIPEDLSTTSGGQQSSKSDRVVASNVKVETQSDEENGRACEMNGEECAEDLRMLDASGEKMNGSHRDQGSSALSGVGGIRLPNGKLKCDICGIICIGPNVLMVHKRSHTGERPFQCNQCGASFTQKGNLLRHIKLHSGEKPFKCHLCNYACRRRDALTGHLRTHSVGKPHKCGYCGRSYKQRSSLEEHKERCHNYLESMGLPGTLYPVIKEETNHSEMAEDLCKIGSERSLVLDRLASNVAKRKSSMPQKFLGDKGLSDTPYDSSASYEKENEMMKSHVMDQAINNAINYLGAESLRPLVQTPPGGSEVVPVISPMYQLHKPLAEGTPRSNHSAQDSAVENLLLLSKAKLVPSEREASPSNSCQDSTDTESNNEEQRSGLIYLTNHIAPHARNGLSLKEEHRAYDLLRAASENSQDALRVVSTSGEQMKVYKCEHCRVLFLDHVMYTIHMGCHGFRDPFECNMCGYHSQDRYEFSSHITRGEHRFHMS
# Protein cereblon, sequence (Q96SW2 whole entry): as the sequence (Q96SW2 whole entry) above
half-life [1],IC50 [3],half-life [4],Drug uptake [5],Drug uptake [6],half-life [8],half-life [9],Structure (SMILES),DC50 [2],DC50 [7],Emax [10],microsomal CLint at 1 µM [11],microsomal CLint at 1 µM [12],IC50 [13],"Papp A→B at 2 h, 1 µM [14]",Kd [15]
201 min,3 nM,129 min,57%,52%,155 min,242 min,CC(C)(O)c1cc2nc([C@H]3CC[C@H](CN4CC5(CC(CCNc6cccc7c6C(=O)N([C@H]6CCC(=O)NC6=O)C7=O)C5)C4)CC3)sc2cc1NC(=O)c1cccc(C(F)(F)F)n1,6.3 nM,2 nM,,,,,,
,,,,,,,CN(CCCOc1cccc2c1CN(C1CCC(=O)NC1=O)C2=O)C[C@H]1CC[C@H](n2cc3cc(NC(=O)c4cccc(C(F)(F)F)n4)c(C(C)(C)O)cc3n2)CC1 (some centres not stated),5 nM,> 500 nM,80%,19 µL/min/mg,44 µL/min/mg,235 nM,4.8 ×10⁻⁶ cm/s,0.22 nM
